Assay results taken from patent US8202893B2, “Cannabinergic lipid ligands” (University of Connecticut, priority 2004, dated 2012).
Where two headings read alike, the source gives them in different places.

How the values were obtained:
CB1 cannabinoid receptor = target: T1, CB1 cannabinoid receptor (Rattus norvegicus, UniProt P20272); experiment: CB1 receptor binding, [3H]CP-55,940 displacement; conditions: rat forebrain membranes
T1 construct: membranes were prepared from rat forebrain membranes; from tissue; host or cells: rat forebrain
Description: Some inventive analogs were tested for CB2 receptor binding affinity and for CB1 receptor affinity (to determine selectivity). […] The lower the Ki value, the higher the binding affinity. […] For the CB1 receptor binding studies, membranes were prepared from rat forebrain membranes according to the procedure of P. R. Dodd et al, A Rapid Method for Preparing Synaptosomes: Comparison with Alternative Procedures, Brain Res., 107-118 (1981). The binding of the novel analogues to the CB1 cannabinoid receptor was assessed as described in W. A. Devane et al, Determination and Characterization of a Cannabinoid Receptor in a Rat Brain, Mol. Pharmacol., 34, 605-613 (1988) and A. Charalambous et al, 5′-azido Δ^8-THC: A Novel Photoaffinity Label for the Cannabinoid Receptor, J. Med. Chem., 35, 3076-3079 (1992) with the following changes. The above articles are incorporated by reference herein.
Membranes, previously frozen at −80° C., were thawed on ice. To the stirred suspension was added three volumes of TME (25 mM Tris-HCl buffer, 5 mM MgCl2 and 1 mM EDTA) at a pH 7.4. The suspension was incubated at 4° C. for 30 min. At the end of the incubation, the membranes were pelleted and washed three times with TME.
(§1) The treated membranes were subsequently used in the binding assay described below. Approximately 30 μg of membranes were incubated in silanized 96-well microtiter plate with TME containing 0.1% essentially fatty acid-free bovine serum albumin (BSA), 0.8 nM [^3H] CP-55,940, and various concentrations of test materials in a final volume of 200 μL. The assays were incubated for 1 hour at 30° C. and then immediately filtered using Packard Filtermate 196 harvester and Whatman GF/C filterplates and washed with wash buffer (TME) containing 0.5% BSA. Radioactivity was detected using MicroScint 20 scintillation cocktail added directly to the dried filterplates, and the filterplates were counted using a Packard Instruments Top-Count. Nonspecific binding was assessed using 100 nM CP-55,940. Data collected from three independent experiments performed with duplicate determinations was normalized between 100% and 0% specific binding for [^3H] CP-55,940, determined using buffer and 100 nM CP-55,940. The normalized data was analyzed using a 4-parameter nonlinear logistic equation to yield IC50 values.

CB2 receptor = target: T2, CB2 receptor (Mus musculus, UniProt P47936); experiment: CB2 receptor binding, [3H]CP-55,940 displacement; conditions: mouse spleen membranes
T2 construct: membranes were prepared from frozen mouse spleen; from tissue; host or cells: mouse spleen
Description: as §1
For the CB2 receptor binding studies, membranes were prepared from frozen mouse spleen essentially according to the procedure of P. R. Dodd et al, A Rapid Method for Preparing Synaptosomes: Comparison with Alternative Procedures, Brain Res., 226, 107-118 (1981) which is incorporated by reference herein. Silanized centrifuge tubes were used throughout to minimize receptor loss due to adsorption. The CB2 binding assay was conducted in the same manner as for the CB1 binding assay. The binding affinities (Ki) were also expressed in nanomoles (nM).

anandamide transporter = experiment: [3H]Anandamide transporter competition assay; type: cell-based; conditions: human CCF-STG1 astrocytoma cells, 10 nM [3H]anandamide
Description: Human CCF-STG1 astrocytoma cells (American Type Culture collection) were grown in RPMI1640 culture medium containing 2 mM L-glutamine, 4.5 g/L glucose, 10 mM HEPES, and 1.0 mM sodium pyruvate, 10% FBS, cultures at 37° C. with 5% CO2. For standard competition assays, confluent cells grown in 24-well plates were rinsed and preincubated for 10 min at 37° C. in assay buffer (Hank's Balanced Salt Solution containing 0.1% DMSO, 10 mM HEPES) plus test compounds (at their final concentrations of 0.01-100 μM). After having discarded the preincubation media, the cells were incubated for 4 min in 0.2 ml assay buffer containing 10 nM [^3H] anandamide (137.6 Ci/mmol, New England Nuclear) plus test compounds. Reactions were stopped by removing the incubation media and rinsing the cells three times with 0.5 ml of ice-cold HBSS buffer containing 0.1% fatty acid-free Bovine Serum Albumin (sigma). Radioactive material in Triton X-100 cell extracts was measured by liquid scintillation counting. A minimum of three independent experiments conducted in six replicates was used to define the concentration needed to produce half-maximal inhibition (IC50) for each compound. IC50 values were obtained by nonlinear regression fitting of the data, using the PRIZM software package. Data are expressed as mean±SEM.

[1] = target: T3, FAAH (fatty acid amide hydrolase) (Rattus norvegicus, UniProt P97612); experiment: FAAH screening: inhibition of anandamide metabolism to arachidonic acid; type: biochemical; conditions: 25 nmoles compound with 25 nmoles AEA, 75 μg enzyme, 250 μL, 15 min
T3 construct: Anandamide Amidase Activity in Rat Brain Microsomes; from tissue; host or cells: rat brain microsomes (by the cited procedure)
T3 sequence (P97612 1-579): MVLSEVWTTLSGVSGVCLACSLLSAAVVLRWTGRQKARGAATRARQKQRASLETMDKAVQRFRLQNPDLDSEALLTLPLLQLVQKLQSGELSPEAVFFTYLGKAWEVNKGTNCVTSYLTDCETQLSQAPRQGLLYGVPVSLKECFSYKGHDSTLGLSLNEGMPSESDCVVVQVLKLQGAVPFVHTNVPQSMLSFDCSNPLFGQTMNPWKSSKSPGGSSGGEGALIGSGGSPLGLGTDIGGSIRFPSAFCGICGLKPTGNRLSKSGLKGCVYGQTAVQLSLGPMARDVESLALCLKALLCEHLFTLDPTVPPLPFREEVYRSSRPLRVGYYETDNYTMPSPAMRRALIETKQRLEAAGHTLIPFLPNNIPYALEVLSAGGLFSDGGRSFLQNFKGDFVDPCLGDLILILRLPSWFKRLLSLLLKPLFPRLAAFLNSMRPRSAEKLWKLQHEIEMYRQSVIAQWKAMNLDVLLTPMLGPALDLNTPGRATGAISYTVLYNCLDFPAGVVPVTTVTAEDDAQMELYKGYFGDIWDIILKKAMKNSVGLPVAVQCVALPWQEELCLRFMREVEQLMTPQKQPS
Description: The FAAH (fatty acid amide hydrolase) enzyme preparation was obtained according to the procedure of Lang and Makriyannis et al High Performance Liquid Chromatographic Determination of Anandamide Amidase Activity in Rat Brain Microsomes, Analytical Biochemistry (238): 40-45, 1996.
All compound solutions were made to a concentration of 10 mM in DMSO. Three tests were performed on each compound: hydrolysis, to determine the stability of the compound in assay conditions without the enzyme present; metabolism, to determine the stability of the compound with the enzyme present; and inhibition of anandamide (native substrate) metabolism to arachidonic acid.
Again the reaction mixture was treated in the same manner as described above and the concentrations of AEA and AA were calculated using external standards. Percent inhibition was calculated using the following equation: % Inhib.=(AA15-AA0)i/(AA15-AA0)s where (AA15-AA0)c is the amount of arachidonic acid formed over 15 minutes from AEA with the inhibitor present and (AA15-AA0)s is the amount of arachidonic acid formed over 15 minutes from AEA when the inhibitor is not present. […] The reaction mixtures were treated as described above and the amount of AA formed was calculated. The software package GraphPad Prism was utilized to calculate IC50 and Ki. HPLC Conditions:
Chromatographic separation was achieved using an Ultrasphere ODS Pre-column (4.6×45 mm) from Beckman. Hardware consisted of a Waters Millennium HPLC system with a 20 μL injection loop. The mobile phase consisted of 8.5% o-phosphoric acid:acetonitrile (3:7), run isocratically at a rate of 1 mL/min and detection at 204 nm. The total run time was 8 minutes with AEA eluting at 2.2 minutes and AA at 6.0 minutes.

[2] = with PMSF (second value of cell), read-out: Ki CB1 (nM) (o/w PMSFQ)
[3] = without PMSF (first value of cell), read-out: Ki CB1 (nM) (o/w PMSFQ)
[4] = with PMSF (second value of cell), read-out: Ki CB1 (nM) (o/w PMSF)
[5] = without PMSF (first value of cell), read-out: Ki CB1 (nM) (o/w PMSF)

T1 sequence (P20272 whole entry): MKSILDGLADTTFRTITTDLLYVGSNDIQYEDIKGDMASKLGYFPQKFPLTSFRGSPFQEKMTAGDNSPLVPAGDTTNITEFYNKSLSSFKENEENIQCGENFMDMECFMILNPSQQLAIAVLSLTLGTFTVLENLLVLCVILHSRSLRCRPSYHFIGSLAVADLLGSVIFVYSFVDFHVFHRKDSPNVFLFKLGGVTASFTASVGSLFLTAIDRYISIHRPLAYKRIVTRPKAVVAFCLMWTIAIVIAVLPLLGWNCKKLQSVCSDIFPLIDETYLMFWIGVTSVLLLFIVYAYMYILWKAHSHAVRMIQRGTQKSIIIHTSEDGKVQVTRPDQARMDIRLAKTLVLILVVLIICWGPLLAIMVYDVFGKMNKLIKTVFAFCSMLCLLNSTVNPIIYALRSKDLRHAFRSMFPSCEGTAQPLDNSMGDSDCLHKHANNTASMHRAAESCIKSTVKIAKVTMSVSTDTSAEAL
T2 sequence (P47936 whole entry): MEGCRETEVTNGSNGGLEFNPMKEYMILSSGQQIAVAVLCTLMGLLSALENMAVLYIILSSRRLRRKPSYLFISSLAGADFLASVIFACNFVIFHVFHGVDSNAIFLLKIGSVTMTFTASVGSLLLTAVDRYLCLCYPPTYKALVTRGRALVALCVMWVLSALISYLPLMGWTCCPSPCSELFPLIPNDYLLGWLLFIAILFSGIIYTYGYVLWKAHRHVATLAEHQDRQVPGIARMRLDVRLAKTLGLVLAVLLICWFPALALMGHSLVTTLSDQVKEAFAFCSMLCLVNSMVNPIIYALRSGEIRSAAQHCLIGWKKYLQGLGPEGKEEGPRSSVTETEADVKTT

SMILES | Ki (CB1 cannabinoid receptor; [2]) [nM] | Ki (CB1 cannabinoid receptor; [3]) [nM] | Ki (CB2 receptor) [nM] | IC50 (anandamide transporter; read-out: IC50 AT inhibition) [nM] | FAAH % Inhibition [1] [%] | Ki (CB1 cannabinoid receptor; [4]) [nM] | Ki (CB1 cannabinoid receptor; [5]) [nM] | IC50 (anandamide transporter; read-out: IC50 (AT inhib.)) [nM]
[N-]=[N+]=NCCCCC/C=C\C/C=C\C/C=C\C/C=C\CCCC(=O)NC1CC1 [Compound A5] | 0.9 | 26.7 | 57.6 | 2900 | 7 | – | – | –
[N-]=[N+]=NCCCC/C=C\C/C=C\C/C=C\C/C=C\CCCC(=O)NC1=NCCS1 [Compound A8] | 106 | 1300 | 513 | 2300 | 49 | – | – | –
[N-]=[N+]=NCCCC/C=C\C/C=C\C/C=C\C/C=C\CCCC(=O)NC1CCC1 [Compound A9] | 31.9 | 112 | 72.4 | – | 58 | – | – | –
CC(C)NC(=O)CCC/C=C\C/C=C\C/C=C\C/C=C\CCCCN=C=S [Compound A10] | 7.7 | 95.2 | 52.7 | – | 84 | – | – | –
O=C(CCC/C=C\C/C=C\C/C=C\C/C=C\CCCCN=C=S)NCC1CC1 [Compound A11] | 34.2 | 91.7 | 70.9 | – | 90 | – | – | –
[N-]=[N+]=NCCCCC/C=C\C/C=C\C/C=C\C/C=C\CCCC(=O)Nc1ccc(O)cc1 [Compound A13] | 531 | 3830 | 335 | 700 | 33 | – | – | –
[N-]=[N+]=NCCCCC/C=C\C/C=C\C/C=C\C/C=C\CCCC(=O)NC1=NCCS1 [Compound A14] | 144 | 428 | 243 | 1200 | 48 | – | – | –
COc1cc(CNC(=O)CCC/C=C\C/C=C\C/C=C\C/C=C\CCCCCN=[N+]=[N-])ccc1O [Compound A15] | 13.2 | 48.8 | 74.7 | – | 38 | – | – | –
O=C(CCC/C=C\C/C=C\C/C=C\C/C=C\CCCCCO)NC1CC1 [Compound A17] | 3.9 | 209 | 38.7 | 35300 | 61 | – | – | –
N#CCCCCC/C=C\C/C=C\C/C=C\C/C=C\CCCC(=O)NC1CC1 [Compound A19] | 0.04 | 32.9 | 5.7 | 23500 | 57 | – | – | –
O=C(CCC/C=C\C/C=C\C/C=C\C/C=C\CCCCCCl)NC1CC1 [Compound A20] | 0.17 | 57.9 | 28.3 | 4100 | 67 | – | – | –
CCCCCN(C)C/C=C\C/C=C\C/C=C\C/C=C\CCCC(=O)NC1CC1 [Compound A21] | 66.3 | 76.5 | 238 | – | – | – | – | –
CCCCCN(C)C/C=C\C/C=C\C/C=C\C/C=C\CCCCNC(=O)COC [Compound A22] | – | – | 224 | – | – | – | – | –
CCCCCN(C)C/C=C\C/C=C\C/C=C\C/C=C\CCCCNC(C)=O [Compound A23] | 627 | 813 | 1760 | – | – | – | – | –
CCCCCN(C)C/C=C\C/C=C\C/C=C\C/C=C\CCCCNC(=O)COC [Compound A24] | – | – | 435 | – | – | – | – | –
CCCCCN(C)C/C=C\C/C=C\C/C=C\C/C=C\CCCCNC(C)=O [Compound A25] | 1030 | 1500 | 3650 | – | – | – | – | –
C[C@H](CO)NC(=O)CCC/C=C\C/C=C\C/C=C\C/C=C\C12CC3CC(CC(C3)C1)C2 [Compound A28] | – | – | 3460 | – | – | – | – | –
C[C@H](CO)NC(=O)CCC/C=C\C/C=C\C/C=C\C/C=C\CCC12CC3CC(CC(C3)C1)C2 [Compound A29] | – | – | 5670 | – | – | – | – | –
CCCCC/C=C\C/C=C\C/C=C\C/C=C\CCCCOC(=O)N[C@H](C)CO [Compound B1] | – | – | 5070 | – | 14.7 | 1440 | 1330 | 7100
CCCCC/C=C\C/C=C\C/C=C\C/C=C\CCCCOC(=O)N[C@@H](C)CO [Compound B2] | – | – | 2150 | – | 14.3 | 996 | 1100 | 6400
CCCCC/C=C\C/C=C\C/C=C\C/C=C\CCCCOC(=O)NC1CC1 [Compound B6] | – | – | 983 | – | – | 75.1 | 181 | 15500
CCCCC/C=C\C/C=C\C/C=C\C/C=C\CCCCOC(=O)NC1CCC1 [Compound B7] | – | – | 5310 | – | – | 995 | 1410 | 15500
CCCCC/C=C\C/C=C\C/C=C\C/C=C\CCCCOC(=O)NC1CCCCC1 [Compound B8] | – | – | 781 | – | – | 1470 | 3960 | 33000
CCCCC/C=C\C/C=C\C/C=C\C/C=C\CCCCNC(=O)OC[C@H](C)O [Compound B16] | – | – | 289 | – | – | 686 | 1200 | 3290
